How the values were obtained:
[1] = tested on: colon cancer CT-26 cell line; assay: In vitro efficacy of IN10018 and HL-085 in CT26 cells (microscopy, flow cytometry); format: cell-based, mouse; conditions: 48 hours, IN10018 5 μM, HL-085 1 μM
Experimental: CT26 cells were cultured with RPMI 1640 (Shanghai Yuanpei, Cat No.: L210KJ, Lot No.: F210916)+10% FBS (Gibco, Cat No.: 10099-141c, Lot No.: 2158737cp) and passaged twice. When the cells were in good condition, the culture plates were placed in 24-well plates. After 24 hours of cell spreading, four groups were set up. The first group was the control group, to which culture medium was added, the second group was IN10018 at a concentration of 5 μM, the third group was HL-085 at a concentration of 1 μM, and the fourth group was IN10018 (5 μM) combined with HL-085 (1 μM). The drugs were mixed and cultured at 37° C. in a 5% CO2 incubator for 48 hours.
After 48 hours of drug action, cells were observed under a microscope and photographed to confirm the cell killing effect. Then the cells were collected for flow analysis, and the cells were washed twice with flow buffer (PBS+2% FBS) and 0.5 μl AF647. Anti-calreticulin antibody (abeam) was added to each well and mixed. The mixture was incubated at 4° C. in the dark, flow buffer was added after 20 min of incubation, the annexin staining kit (Beyotime) was used and 195 μl […] was added. After pipetting and mixing with the cells, 5 μl Annexin-V-FITC antibody was added and gently mixed. Finally, 10 μl PI dye was added and mixed. […]

[2] = tested on: CT-26 mouse colorectal cancer cell subcutaneous allograft tumor; assay: In vivo antitumor efficacy, CT-26 subcutaneous allograft tumor model (Example 3); parameters: species or system BALB/c mice; TGI (tumor growth inhibition rate): dose or concentration left out as unconfirmed; conditions: for TGI (tumor growth inhibition rate) / Tumor volume on day 15: 15th day after group administration; for TGI (tumor growth inhibition rate): vs control group; for Tumor volume on day 15: Cobimetinib 7.5 mg/kg ip TIW, IN10018 12.5 mg/kg po QD, PDL1 antibody 5 mg/kg ip BIW, mean ± standard error
Description: Mice: Female BALB/c mice aged 6-8 weeks were purchased from Beijing Weitong Lihua Laboratory Animal Co., Ltd. The assay began after the animals arrived and were adapted to the experimental environment. The animals were kept in IVC (independent ventilation system) cages (6 per cage) in an SPF-level animal room. All cages, bedding and drinking water must be sterilized before use. All experimenters should wear protective clothing and latex gloves when operating in the animal room. The animal information cards for each cage should indicate the number of animals in the cage, gender, strain, receipt date, dosing regimen, assay number, group and start date of the assay. Cages, feed and drinking water were changed twice a week. The breeding environment and lighting conditions are as follows:
5% CO2 incubator. Two to three times a week, routine digestion and subculture were performed with trypsin-EDTA. When the cells were in the exponential growth phase and the saturation was 80%-90%, the cells were harvested, counted, and inoculated.
0.1 mL of cell suspension containing 3×10^5 cells was subcutaneously inoculated on the right back of each mouse. When the tumor volume reached ˜58 mm^3 (10 days after cell inoculation), the mice were randomly divided into groups for drug administration according to the tumor volume.
The diameter of tumor was measured with vernier caliper, 3 times a week. The formula for calculating the tumor volume is: V=0.5×a×b^2, where a and b represent the long and short diameters of the tumor respectively.
Animals were considered dead when they died naturally or when the tumor volume was greater than 2500 mm^3. The survival rate and life cycle of the animals after administration were calculated based on this.
Statistical analysis was performed based on tumor volume and tumor weight at the end of the trial using Prism Graphpad software. Comparisons between multiple groups were analyzed using the Two-way ANOVA test, and P<0.05 was considered as having significant differences.
The survival rate of animals was analyzed using the Gehan-Breslow-Wilcoxon test, and P<0.05 was considered as having significant difference.

melanoma cells A375 = assay: Cell killing (CCK8) of Cobimetinib against A375 after FAK silencing; format: cell-based; conditions: with FAK silencing (FAK siRNA) vs control siRNA, 72 h
Experimental: In the in vitro assay, different concentrations of Cobimetinib were given under the condition of silencing the FAK gene. In A375 cells, the cell killing curve was obtained and the IC50 value was determined. The cytotoxic effect of Cobimetinib in the control group and the FAK siRNA group was compared to explore the effect of the FAK target on the cytotoxicity of Cobimetinib. The cell killing curve of Cobimetinib at different concentrations in melanoma cells A375 under the condition of FAK gene silencing was detected in the assay and the IC50 value was determined. A 96-well cell plate was seeded with 5000 A375 cells/well, and two groups were transfected with control siRNA or FAK siRNA respectively. Cobimetinib was added 24 hours after the transfection. The highest concentration was 1 μM. A total of 6 concentrations were set for 3-fold gradient dilution. The lowest concentration of Cobimetinib was 4.115 nM. After the drug and cells were incubated for 72 hours, 10 μl CCK8 solution was added to each well and incubated at 37 degrees in a 5% carbon dioxide incubator for 2 hours. A microplate reader with the absorbance wavelength set to 450 nm was used for reading. The values read were compared to the DMSO control group and plotted using Graphpad 8.0.

[3] = tested on: endoplasmic reticulum stress-related proteins GRP78 and Phospho-eIF2α (Ser51) in A375 cells; assay: Endoplasmic reticulum stress protein expression in A375 after FAK silencing plus Cobimetinib; format: cell-based; conditions: FAK siRNA 50 nM, then Cobimetinib 6 hours
Experimental: A375 cells were transfected with control siRNA or FAK siRNA at a final concentration of 50 nM. After 24 hours of transfection, different concentrations of Cobimetinib were given for 6 hours. The protein expression levels of FAK and endoplasmic reticulum stress-related proteins GRP78 and Phospho-eIF2α (phosphorylated-Phospho-eIF2α) (Ser51) were detected.

[4] = tested on: Calreticulin (ICD target) in A375 cells; assay: Calreticulin immunofluorescence in A375 after FAK silencing plus Cobimetinib; format: cell-based; conditions: FAK siRNA 50 nM, then 10 nM Cobimetinib 48 hours
Experimental: A375 cells were transfected with control siRNA or FAK siRNA at a final concentration of 50 nM. After 24 hours, A375 cells were treated with 10 nM Cobimetinib for 48 hours and then calreticulin was detected by immunofluorescence.

| Compound | cell status / cell killing effect observed under a microscope [1] | TGI (tumor growth inhibition rate) [2] [%] | Tumor volume on day 15 [2] [mm^3] | cell killing effect of cobimetinib on melanoma cells A375 (melanoma cells A375) | endoplasmic reticulum stress of A375 [3] | exposure and release of the DAMPs marker calreticulin [4] | Survival rate on Day 31 ([2]; 31st day after group administration, death = natural death or tumor volume > 2500 mm^3, Cobimetinib 7.5, IN10018 12.5, PDL1 antibody 5 mg/kg) [%] | Median survival time ([2]; up to the 31st day after group administration, Cobimetinib 7.5, IN10018 12.5, PDL1 antibody 5 mg/kg) [days] |
| --- | --- | --- | --- | --- | --- | --- | --- | --- |
| O=C(NOCCO)c1cc2scnc2c(F)c1Nc1ccc(I)cc1F [HL-085] | poor |  |  |  |  |  |  |  |
| COc1cc(C(=O)NC2CCN(C)CC2)c(F)cc1Nc1ncc(C(F)(F)F)c(Oc2cccc3c2C(=O)N(C)C3)n1 [IN10018] | better | 19.9 | 2418.8±436.5 |  |  |  |  |  |
| O=C(c1ccc(F)c(F)c1Nc1ccc(I)cc1F)N1CC(O)([C@@H]2CCCCN2)C1 [Cobimetinib] |  | 59.2 | 1261.3±565.4 | significantly enhance | Significantly Up-Regulated | significantly enhance | 16.7 | 22 |

From patent US20250099450A1, “PHARMACEUTICAL COMBINATION FOR TREATING TUMORS AND USE THEREOF” (INXMED (NANJING) CO., LTD, priority 2022, published 2025)
